Laboratory results: patent US8278346B2, “Di-tin fused thiophene compounds and polymers and methods of making” (Corning Incorporated, priority 2010, dated 2012)

Assay: Solubility of FT4 compounds and polymer in organic solvents
Format: physicochemical
Settings: for solubility in diethyl ether / solubility in hexane: room temperature
From the text: Table 2 provides solubility properties and a solubility comparison of di-Br compound 7 and di-tin compound 8.

SMILES: CCCCCCCCCCCCCCCCCc1[c]([Sn]([CH3])([CH3])[CH3])sc2c1sc1c3s[c]([Sn]([CH3])([CH3])[CH3])c(CCCCCCCCCCCCCCCCC)c3sc21 [compound 8]
- solubility in hexane, toluene, CH2Cl2, or mixtures thereof (compared to the corresponding di-bromo compound Br-DC17FT4-Br): excellent solubility
- solubility in diethyl ether: freely soluble
- solubility in hexane: freely soluble

SMILES: CCCCCCCCCCCCCCCCCc1c(Br)sc2c1sc1c3sc(Br)c(CCCCCCCCCCCCCCCCC)c3sc21 [compound 7]
- solubility in direct comparisons to compound 8 (Table 2 solvents): essentially insoluble or only partially soluble
- solubility in diethyl ether: practically insoluble
- solubility in hexane: practically insoluble
